Test results taken from patent US8217029B2, “Oxazolidinone antibiotics” (Actelion Pharmaceuticals Ltd, priority 2007, dated 2012).

tested on: S aureus A798; test: Minimal inhibitory concentration (MIC), microdilution method in cation-adjusted Mueller-Hinton Broth following NCCLS guidelines; type: cell-based; conditions: pH of test medium 7.2-7.3
Experimental: These assays have been performed following the description given in “Methods for dilution Antimicrobial Susceptibility Tests for Bacteria that Grow Aerobically, 4th ed.; Approved standard: NCCLS Document M7-A4; National Committee for Clinical Laboratory Standards Villanova, Pa., USA, 1997”. Minimal inhibitory concentrations (MICs; mg/l) were determined in cation-adjusted Mueller-Hinton Broth by a microdilution method following NCCLS guidelines (National Committee for Clinical Laboratory Standards. Methods for Dilution Antimicrobial Susceptibility). The pH of the test medium was 7.2-7.3. All Example compounds were tested against several Gram positive and Gram negative bacteria.

Row | SMILES | MIC [µg/mL]
1 | COc1ccc2nccc(N3CCCN(C[C@@H]4CN(c5ccc6c(c5)OCCO6)C(=O)O4)CC3)c2n1 [Example 107, (R)-3-(2,3-Dihydro-benzo[1,4]dioxin-6-yl)-5-[4-(6-methoxy-[1,5]naphthyridin-4-yl)-[1,4]diazepan-1-ylmethyl]-oxazolidin-2-one] | ≤ 0.031
2 | COc1ccc2nccc(N3C[C@H](NC(=O)[C@@H]4CN(c5ccc6c(c5)OCCO6)C(=O)O4)C[C@H]3CO)c2n1 [Example 78, (S)-3-(2,3-Dihydro-benzo[1,4]dioxin-6-yl)-2-oxo-oxazolidine-5-carboxylic acid [(3R,5S)-5-hydroxymethyl-1-(6-methoxy-[1,5]naphthyridin-4-yl)-pyrrolidin-3-yl]-amide] | ≤ 0.031
3 | COc1ccc2nccc(N3CCN(C[C@@H]4CN(c5ccc(OC(F)F)cc5)C(=O)O4)CC3)c2n1 [Example 20, (R)-3-(4-Difluoromethoxy-phenyl)-5-[4-(6-methoxy-[1,5]naphthyridin-4-yl)-piperazin-1-ylmethyl]-oxazolidin-2-one] | ≤ 0.031
4 | COc1ccc2nccc(N3CCN(CC4CN(c5ccc6c(n5)NC(=O)CO6)C(=O)O4)CC3)c2n1 (racemic) [Example 113, (RS)-6-{5-[4-(6-Methoxy-[1,5]naphthyridin-4-yl)-piperazin-1-ylmethyl]-2-oxo-oxazolidin-3-yl}-4H-pyrido[3,2-b][1,4]oxazin-3-one] | ≤ 0.031
5 | CCCc1ccc(N2C[C@@H](CN3CCN(c4ccnc5ccc(OC)nc45)CC3)OC2=O)cc1 [Example 25, (R)-5-[4-(6-Methoxy-[1,5]naphthyridin-4-yl)-piperazin-1-ylmethyl]-3-(4-propyl-phenyl)-oxazolidin-2-one] | ≤ 0.031

Results, then the molecule that gave them:

Row | MIC [µg/mL] | SMILES
6 | ≤ 0.031 | COc1ccc2ncc(F)c(N3CC(NC[C@@H]4CN(c5cc6c(cc5F)SCC(=O)N6)C(=O)O4)C3)c2n1 [Example 155, 7-Fluoro-6-((R)-5-{[1-(3-fluoro-6-methoxy-[1,5]naphthyridin-4-yl)-azetidin-3-ylamino]-methyl}-2-oxo-oxazolidin-3-yl)-4H-benzo[1,4]thiazin-3-one]
7 | ≤ 0.031 | COc1ccc2ncc(F)c(N3CCC(NC[C@@H]4CN(c5ccc6c(c5)NC(=O)CO6)C(=O)O4)CC3)c2n1 [Example 123, 6-((R)-5-{[1-(3-Fluoro-6-methoxy-[1,5]naphthyridin-4-yl)-piperidin-4-ylamino]-methyl}-2-oxo-oxazolidin-3-yl)-4H-benzo[1,4]oxazin-3-one]
8 | ≤ 0.031 | COc1cnc2cccc(N3CC(NC[C@@H]4CN(c5ccc6c(c5)NC(=O)CS6)C(=O)O4)C3)c2c1 [Example 157, 6-((R)-5-{[1-(3-Methoxy-quinolin-5-yl)-azetidin-3-ylamino]-methyl}-2-oxo-oxazolidin-3-yl)-4H-benzo[1,4]thiazin-3-one]
9 | ≤ 0.031 | COc1ccc2nccc(N3CCN(C[C@@H]4CN(c5ccc6c(c5)NC(=O)CS6)C(=O)O4)CC3)c2n1 [Example 22, 6-{(R)-5-[4-(6-Methoxy-[1,5]naphthyridin-4-yl)-piperazin-1-ylmethyl]-2-oxo-oxazolidin-3-yl}-4H-benzo[1,4]thiazin-3-one]
10 | ≤ 0.031 | CCOc1ccc(N2C[C@@H](CNC3CN(c4ccnc5ccc(OC)nc45)C3)OC2=O)cc1 [Example 175, (R)-3-(4-Ethoxy-phenyl)-5-{[1-(6-methoxy-[1,5]naphthyridin-4-yl)-azetidin-3-ylamino]-methyl}-oxazolidin-2-one]
11 | ≤ 0.031 | COc1ccc2ncc(F)c(N3CC(N(C)C[C@@H]4CN(c5ccc6c(c5)NC(=O)CO6)C(=O)O4)C3)c2n1 [Example 127, 6-[(R)-5-({[1-(3-Fluoro-6-methoxy-[1,5]naphthyridin-4-yl)-azetidin-3-yl]-methyl-amino}-methyl)-2-oxo-oxazolidin-3-yl]-4H-benzo[1,4]oxazin-3-one]
12 | ≤ 0.031 | COc1ccc2ncc(F)c(N3CCC(NC[C@@H]4CN(c5ccc6c(c5)NC(=O)CS6)C(=O)O4)CC3)c2n1 [Example 122, 6-((R)-5-{[1-(3-Fluoro-6-methoxy-[1,5]naphthyridin-4-yl)-piperidin-4-ylamino]-methyl}-2-oxo-oxazolidin-3-yl)-4H-benzo[1,4]thiazin-3-one]
